Test results: patent US10653138B2, “Composition for attracting bed bugs” (London School of Hygiene & Tropical Medicine, priority 2015, dated 2020)

How the values were obtained:
bed bug antennae = test: Coupled gas chromatography-electroantennography (GC-EAG) of volatile extract from bed bug-exposed paper; parameters: species or system Cimex lectularius; settings: for Electrophysiology Auto method: bullet = marked under the Auto method; for Responses Total: males plus females, 20 insects tested; for Responses Females: number of females giving an EAG response to the peak; for Responses Females / Responses Males: volatile extract 1 μL; for Responses Males: number of males giving an EAG response to the peak; for electroantennogram (EAG) response: result in words; for Visual inspection (no of responses) >5 / Visual inspection (no of responses) >10 / Visual inspection (no of responses) >15: threshold of individuals responding; for Visual inspection (no of responses) Response: total EAG responses, Table 8
Text: Experimental insects, unless otherwise stated, were mated males and females of C. lectularius that had been fed 7 to 14 days previously on heparinised sheep blood. The electrodes used to make recordings were Ag/AgCl wires (diameter 0.37 mm) inserted into glass pipettes, made from borosilicate glass capillaries (outer diameter 2.0 mm; inner diameter 1.16 mm). The glass pipettes were filled with Ringers solution (7.55 g NaCl, 0.64 g KCl, 0.22 g CaCl2, 1.73 g MgCl2 g, 0.86 g NaHCO3 and 0.61 g Na3PO4 L^−1 water). The bed bug was then chilled on ice for one minute before dissection. Preparations were held in a continuous, humidified, charcoal filtered air flow ([…]) coming from a glass tube, which was positioned 5 mm from the antennal preparation. Once the antennal preparation and EAG equipment were in position the microscope light was switched off.
The GC used was a HP-680N, containing a HP-1 column (30 m×0.32 mm; film thickness, 0.52 μm) with a COC injector, hydrogen carrier gas and a FID. The oven temperature was maintained at 40° C. for two min and then programmed at 5° C. min^−1 to 100° C. and then at 10° C. […] to 250° C. The end of the column was inserted into the centre of the main air flow so that the eluent went over the antennal preparation. […] Amplification of the signals was set at ×10,000. Signals were analysed using the computer-based software package, EAD 2000 (Syntech®, The Netherlands). The volatile extract (1 μL) from an air entrainment of bed bug-exposed papers (see Example 1) was injected onto the column. A solution of n-alkanes (C7-C25, 1 μL of 100 ng μL^−1) in hexane was also analysed to calculate the retention indices (RI) of any EAG-active peaks for comparison with GC and coupled GC-MS traces (Equation 1).
Electroantennographic (EAG) responses from the coupled gas chromatography-electroantennographic (GC-EAG) analysis of the volatile extract collected using air entrainment were determined by visual appearance. Coupled GC-EAG traces were examined visually on a light box to identify EAG responses and match them to peaks on the GC traces. A combination of characteristics including the amplitude and shape of the deflection from the baseline were used to identify EAG responses. For example, an EAG response is usually of greater amplitude than the background noise and it has a characteristic negative deflection followed by a quick positive deflection resulting in a short sharp response often of similar shape and position as the corresponding peak on the GC trace. Responses were matched between males and females separately onto master traces for each sex. The EAG-active peaks were labelled from 1 to 21. Male and female master traces were then overlaid to identify where consistent responses occurred in both sexes. Five or more individuals responding at the same retention time on the GC trace was considered to be a consistent EAG response and the corresponding peak on the GC trace was considered to be EAG-active. Three thresholds were used: greater than 5, greater than 10 or greater than 15 individuals responding to the same GC peak or at the same retention time. The traces were then subjected to manual or automated statistical analysis.

bed bugs [1] = test: Behavioural bioassay, dose responses of individual chemicals (Example 8); format: in vivo, Cimex lectularius; settings: for dose response: 0.008× to 8000×; for doses on which further synthetic blends should focus: × relative to 8% natural standard (8×=1× standard)
Protocol: Methods: The behavioural bioassay was as described by Weeks et al. 2011 and recorded using EthoVision and the methodology described by Weeks et al. 2013. For each chemical, (E)-2-octenal, (RS)-1-octen-3-ol and nonanal, seven doses were tested from 0.008× to 8000×, along with three controls. Each replicate was completed as a block of 10 treatments including: We are referring here to either 0.001×, 0.01×, 0.1×, 1×, 10×, 100× or 1000× the dose of (E)-2-octenal found naturally in the aggregation pheromone. For instance, an “8% solution” refers to an 8% dose of volatile extract (with the various different ratios of individual component). In each block the order of the treatments and the position of the odour pot were randomized. 10 blocks were completed for each chemical (n=10).

bed bugs [2] = test: Behavioural bioassay, refined synthetic blends (Example 9); format: in vivo, Cimex lectularius
Text: The behavioural bioassay was as described by Weeks et al. 2011 and recorded using EthoVision and the methodology described by Weeks et al. 2013. Each replicate was completed as a block of 10 treatments including: • 1. Bed bug-exposed paper (positive control) • 2. Ether (negative control) • 3. Nonanal 80× • 4. E-2-octenal 800× • 5. Nonanal 80× and E-2-octenal 80× (80-80) • 6. Nonanal 80× and E-2-octenal 800× (80-800) • 7. Nonanal 80× and E-2-octenal 8000× (80-8000) • 8. Nonanal 8× and E-2-octenal 800× (8-800) • 9. Nonanal 8× and E-2-octenal 8000× (8-8000) • 10. Nonanal 80×, E-2-octenal 80× and 1-octen-3-ol 80× (80-80-80)
We are referring here to either 1×, 10×, 100× or 1000× the dose of Nonanal or (E)-2-octenal found naturally in the aggregation pheromone. For instance, an “8% solution” refers to an 8% dose of volatile extract (with the various different ratios of individual component).
Therefore, 8× means that it is 1 of standard volatiles, 8×=1× standard, 80×=10× standard and 800×=100× standard. 8000×=1000× standard.
In each block the order of the treatments and the position of the odour pot were randomized. 18 blocks were completed.

bed bugs [3] = settings: volatile components of aggregation pheromone; cited from earlier work

| Compound | Electrophysiology Auto method (bed bug antennae) | Responses Total (bed bug antennae) | Responses Females (bed bug antennae) | Responses Males (bed bug antennae) | electroantennogram (EAG) response (bed bug antennae) | Visual inspection (no of responses) >5 (bed bug antennae) | Visual inspection (no of responses) >10 (bed bug antennae) | Visual inspection (no of responses) >15 (bed bug antennae) | Visual inspection (no of responses) Response (bed bug antennae) | dose response (bed bugs [1]) | doses on which further synthetic blends should focus (bed bugs [1]) | time spent over the odour pot compared with blends (bed bugs [2]; (E)-2-octenal 800 treatment) | attraction of bed bugs to safe shelters (bed bugs [3]) | zone duration compared to zero (bed bugs [2]; nonanal 80) |
| --- | --- | --- | --- | --- | --- | --- | --- | --- | --- | --- | --- | --- | --- | --- |
| CCCCC/C=C/C=O (single isomer, unassigned) [(E)-2-octenal] | • | 16 | 8 | 8 | EAG-active | • (>5) | • (>10) | • (>15) | 16 | clear dose response was observed | 800-8000 × | significantly lower in time spent over the odour pot than 80-800 and 8-800 | attract bed bugs to safe shelters |  |
| CCCCCCCCC=O [Nonanal, nonanal] | • | 17 | 9 | 8 | EAG-active | • (>5) | • (>10) | • (>15) | 17 | clear dose response was observed | 8-80 × |  |  | significantly greater in time spent above the odour pot in the odour zone |
